The target in one experiment is CK2 (Homo sapiens (Human), UniProt P68400). In words: Radiometric CK2 kinase assay. The following applies: for inhibition at 0.1 µM: compound at 0.10 μM. The experiment is classed as biochemical.
The next experiment concerns MDA-MB231 cells. In words: Cell death, IncuCyte propidium iodide live-cell imaging. The experiment is classed as cell-based, human. The settings on record: 48 hours, increasing concentrations.
A further experiment concerns 786-O and RPTEC cells. In words: Immunoblotting of CK2-dependent substrate phosphorylation and apoptosis markers. Format: cell-based. The settings on record: 48 hours or 24 hours, increasing concentrations.
The test system of the next experiment is A549 and MDA-MB231 cells. The description is as above. Format: cell-based, human. The settings on record: A549 24 hours, MDA-MB231 48 hours.
A further experiment relates to 786-O cells. In words: Cell death, IncuCyte propidium iodide live-cell imaging. Format: cell-based, human.
The test system of another experiment is RPTEC cells. The experiment is described as above. The experiment is classed as cell-based. The following applies: 48 hours, 1 μM AB668 with 5 μM tariquidar (n=5).
The subject of experiment [1] is MCF10-A cells (WT and CK2β-depleted). The experiment is described as above. The experiment is classed as cell-based. The settings on record: n=5.
The mark [2] stands for this setting: inhibition of CK2 activity, ATP 10 μM.

Like-named read-outs stand apart in the source and are kept apart here.

Chain of CK2 (P68400 whole entry): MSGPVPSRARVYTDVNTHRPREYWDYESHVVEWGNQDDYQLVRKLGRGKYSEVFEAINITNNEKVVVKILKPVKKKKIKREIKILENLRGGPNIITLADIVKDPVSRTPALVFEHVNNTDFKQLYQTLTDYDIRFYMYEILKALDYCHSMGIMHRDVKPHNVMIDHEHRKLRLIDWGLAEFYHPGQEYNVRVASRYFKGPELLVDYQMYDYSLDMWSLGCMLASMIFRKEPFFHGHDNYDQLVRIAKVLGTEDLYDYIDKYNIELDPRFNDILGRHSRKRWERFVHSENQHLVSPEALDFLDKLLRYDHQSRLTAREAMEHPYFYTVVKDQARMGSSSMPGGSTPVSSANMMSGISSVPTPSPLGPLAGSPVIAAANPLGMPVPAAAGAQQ

`CCOC(=O)c1[nH]c2ccc(F)cc2c1-c1cn(CC2CCN(CCNS(=O)(=O)c3ccc(CC)cc3)CC2)nn1` [AB526, Ethyl 3-(1-((1-(2-((4-ethylphenyl)sulfonamido)ethyl)piperidin-4-yl)methyl)-1H-1,2,3-triazol-4-yl)-5-fluoro-1H-indole-2-carboxylate]: half-maximal inhibition against CK2 (IC50) was put at 300 nM. On CK2 (Lineweaver-Burk analysis (n=2)), the “Mechanism of CK2 inhibition with respect to ATP” value is “non-ATP competitive mechanism of CK2 inhibition”. In addition, the “Mechanism of inhibition towards CK2β” value on CK2 (Lineweaver-Burk analysis (n=2)) was “mixed competitive inhibition towards CK2β”. Also, the “Sensitivity to compound-mediated cell death, MDA-MB231 versus normal MCF10A” value with MDA-MB231 cells is “much more sensitive”. For the same compound, the “CK2-dependent substrate phosphorylation and apoptosis (western blot)” value was “inhibit CK2-dependent substrate phosphorylation in cells and induce apoptosis” with 786-O and RPTEC cells; “inhibit CK2-dependent substrate phosphorylation and induce apoptosis in different cancer cell lines” in the experiment with A549 and MDA-MB231 cells. On to `CC(C)COC(=O)c1[nH]c2ccc(F)cc2c1-c1cn(CC2CCN(CCNS(=O)(=O)c3ccc(CC(C)C)cc3)CC2)nn1` [AB668, Isobutyl 5-fluoro-3-(1-((1-(2-((4-isobutylphenyl)sulfonamido)ethyl)piperidin-4-yl)methyl)-1H-1,2,3-triazol-4-yl)-1H-indole-2-carboxylate], for which the “Cell death induction in RCC lines compared to normal cells” value with 786-O cells (24 hours, 786-O (VHL+/−) at 1 μM, RPTEC at 10 μM (n=5)) is reported as “much more efficient in inducing cell death in RCC lines”. The “Sensitivity to compound-mediated cell death, 786-O versus RPTEC or HEK 293” value with 786-O cells (36 hours, increasing concentrations (n=4 to 6)) is given as “much more sensitive”. Also, the “Cell death induction compared to CX-4945 and sunitinib” value in the experiment with 786-O cells (at 5 and 2.5 μM) was “much more efficient in inducing cell death”. The “Effect of P-glycoprotein inhibitor tariquidar on compound effect” value in the experiment on RPTEC cells is on record as “has not changed the effect of AB668”. In addition, the “Sensitivity to compound-mediated cell death, MDA-MB231 versus normal MCF10A” value in the experiment with MDA-MB231 cells is listed as “much more sensitive”. Also, the “Cell death in CK2β-depleted versus WT cells” value in experiment [1] is reported as “more pronounced in CK2β-depleted cells than in WT cells”. Further, the “CK2-dependent substrate phosphorylation and apoptosis (western blot)” value in the experiment with 786-O and RPTEC cells was “inhibit CK2-dependent substrate phosphorylation in cells and induce apoptosis”; in the experiment on A549 and MDA-MB231 cells, “inhibit CK2-dependent substrate phosphorylation and induce apoptosis in different cancer cell lines”. Compound `CC(=O)c1[nH]c2ccc(F)cc2c1-c1cn(CC2CCN(CCNS(=O)(=O)c3ccc(-c4ccccc4F)cc3)CC2)nn1` [AB1390, N-(2-(4-((4-(2-acetyl-5-fluoro-1H-indol-3-yl)-1H-1,2,3-triazol-1-yl)methyl)piperidin-1-yl)ethyl)-2′-fluoro-[1,1′-biphenyl]-4-sulfonamide] registered an inhibition at 0.1 µM against CK2 (ATP 10 μM) of 36%. The same measure, in the same setting: the result for `CC(=O)c1[nH]c2ccc(F)cc2c1-c1cn(CC2CCN(CCNS(=O)(=O)c3ccc(-c4c(C#N)cccc4C(F)(F)F)cc3)CC2)nn1` [AB1393, N-(2-(4-((4-(2-acetyl-5-fluoro-1H-indol-3-yl)-1H-1,2,3-triazol-1-yl)methyl)piperidin-1-yl)ethyl)-2′-cyano-6′-(trifluoromethyl)-[1,1′-biphenyl]-4-sulfonamide] reads 31%.

In turn, `CC(=O)c1[nH]c2ccc(F)cc2c1-c1cn(CC2CCN(CCNS(=O)(=O)c3ccc(-c4ccccc4C(F)(F)F)cc3)CC2)nn1` [AB1394, N-(2-(4-((4-(2-acetyl-5-fluoro-1H-indol-3-yl)-1H-1,2,3-triazol-1-yl)methyl)piperidin-1-yl)ethyl)-2′-(trifluoromethyl)-[1,1′-biphenyl]-4-sulfonamide] gave an IC50 against CK2 of 23 nM. `CC(C)COC(=O)c1[nH]c2ccc(F)cc2c1-c1cn(CC2CCN(CCNS(=O)(=O)c3ccc(-c4c(O)cccc4F)cc3)CC2)nn1` [AB1402, isobutyl 5-fluoro-3-(1-((1-(2-((2′-fluoro-6′-hydroxy-[1,1′-biphenyl])-4-sulfonamido)ethyl)piperidin-4-yl)methyl)-1H-1,2,3-triazol-4-yl)-1H-indole-2-carboxylate] yielded an IC50 at CK2 (setting [2]) of 45 nM. The compound `CC(=O)c1[nH]c2ccc(F)cc2c1-c1cn(C[C@H]2CCCN(CCNS(=O)(=O)c3ccc(CC(C)C)cc3)C2)nn1` [AB1403] displayed an inhibition at 0.1 µM against CK2 (ATP 10 μM) of 9%. On the same count and under the same terms, the figure for `CC(=O)c1[nH]c2ccc(F)cc2c1-c1cn(CC2CN(CCNS(=O)(=O)c3ccc(CC(C)C)cc3)C2)nn1` [AB1404, N-(2-(3-((4-(2-acetyl-5-fluoro-1H-indol-3-yl)-1H-1,2,3-triazol-1-yl)methyl)azetidin-1-yl)ethyl)-4-isobutylbenzenesulfonamide] is 20%. Same read-out and setting: the result for `CC(C)Cc1ccc(S(=O)(=O)NCCN2CCC(Cn3cc(-c4c(CO)[nH]c5ccc(F)cc45)nn3)CC2)cc1` [AB1405, N-(2-(4-((4-(5-fluoro-2-(hydroxymethyl)-1H-indol-3-yl)-1H-1,2,3-triazol-1-yl)methyl)piperidin-1-yl)ethyl)-4-isobutylbenzenesulfonamide] reads 11%; that for `O=S(=O)(NCCN1CCC(Cn2cc(-c3c(CO)[nH]c4ccc(F)cc34)nn2)CC1)c1ccc(-c2c(O)cccc2F)cc1` [AB1406, 2′-fluoro-N-(2-(4-((4-(5-fluoro-2-(hydroxymethyl)-1H-indol-3-yl)-1H-1,2,3-triazol-1-yl)methyl)piperidin-1-yl)ethyl)-6′-hydroxy-[1,1′-biphenyl]-4-sulfonamide], 29%. Consider `CCC(=O)c1[nH]c2ccc(F)cc2c1-c1cn(CC2CCN(CCNS(=O)(=O)c3ccc(-c4c(O)cccc4F)cc3)CC2)nn1` [AB1415, 2′-fluoro-N-(2-(4-((4-(5-fluoro-2-propionyl-1H-indol-3-yl)-1H-1,2,3-triazol-1-yl)methyl)piperidin-1-yl)ethyl)-6′-hydroxy-[1,1′-biphenyl]-4-sulfonamide], for which 50 nM corresponded to half-maximal inhibition against CK2 (IC50). The same measure, in the same setting: the figure for `CCC(=O)c1[nH]c2ccc(F)cc2c1-c1cn(CC2CCN(CCNS(=O)(=O)c3ccc(-c4c(OC)cccc4OC)cc3)CC2)nn1` [AB1416, N-(2-(4-((4-(5-fluoro-2-propionyl-1H-indol-3-yl)-1H-1,2,3-triazol-1-yl)methyl)piperidin-1-yl)ethyl)-2′,6′-dimethoxy-[1,1′-biphenyl]-4-sulfonamide] is 100 nM. `CCC(=O)c1[nH]c2ccc(F)cc2c1-c1cn(CC2CCN(CCNS(=O)(=O)Cc3ccc(C(F)(F)F)cc3)CC2)nn1` [AB1417, N-(2-(4-((4-(5-fluoro-2-propionyl-1H-indol-3-yl)-1H-1,2,3-triazol-1-yl)methyl)piperidin-1-yl)ethyl)-1-(4-(trifluoromethyl)phenyl)methanesulfonamide] had an IC50 at CK2 (setting [2]) of 120 nM. `CC(=O)c1[nH]c2ccc(F)cc2c1-c1cn(CC2CCN(CCNS(=O)(=O)c3ccc(-c4ccccc4O)cc3)CC2)nn1` [AB1450, N-(2-(4-((4-(2-acetyl-5-fluoro-1H-indol-3-yl)-1H-1,2,3-triazol-1-yl)methyl)piperidin-1-yl)ethyl)-2′-hydroxy-[1,1′-biphenyl]-4-sulfonamide] registered an IC50 on CK2 of 49 nM. Same read-out and setting: the figure for `CC(=O)c1[nH]c2ccc(F)cc2c1-c1cn(CC2CCN(CCNS(=O)(=O)c3ccc(-c4c(F)cccc4C(F)(F)F)cc3)CC2)nn1` [AB1451, N-(2-(4-((4-(2-acetyl-5-fluoro-1H-indol-3-yl)-1H-1,2,3-triazol-1-yl)methyl)piperidin-1-yl)ethyl)-2′-fluoro-6′-(trifluoromethyl)-[1,1′-biphenyl]-4-sulfonamide] is 45 nM.

`CC(=O)c1[nH]c2ccc(F)cc2c1-c1cn(CC2CCN(CCNS(=O)(=O)c3ccc(-c4c(C)cccc4C#N)cc3)CC2)nn1` [AB1452, N-(2-(4-((4-(2-acetyl-5-fluoro-1H-indol-3-yl)-1H-1,2,3-triazol-1-yl)methyl)piperidin-1-yl)ethyl)-2′-cyano-6′-methyl-[1,1′-biphenyl]-4-sulfonamide]: on CK2 (ATP 10 μM), 0.1 µM produced 36% inhibition. Same read-out and setting: the figure for `CC(=O)c1[nH]c2ccc(F)cc2c1-c1cn(CC2CCN(CCNS(=O)(=O)c3ccc(-c4ccc(F)cc4Cl)cc3)CC2)nn1` [AB1453, N-(2-(4-((4-(2-acetyl-5-fluoro-1H-indol-3-yl)-1H-1,2,3-triazol-1-yl)methyl)piperidin-1-yl)ethyl)-2′-chloro-4′-fluoro-[1,1′-biphenyl]-4-sulfonamide] is 40%. As to `COc1cccc(OC)c1-c1ccc(S(=O)(=O)NCCN2CCC(Cn3cc(-c4c(C(C)=O)[nH]c5ccc(F)cc45)nn3)CC2)cc1F` [AB1454, N-(2-(4-((4-(2-acetyl-5-fluoro-1H-indol-3-yl)-1H-1,2,3-triazol-1-yl)methyl)piperidin-1-yl)ethyl)-2-fluoro-2′,6′-dimethoxy-[1,1′-biphenyl]-4-sulfonamide], the IC50 against CK2 turned out to be 11 nM.

The record behind these values is patent US20230278983A1, “INDOLE DERIVATIVES AND USES THEREOF FOR TREATING A CANCER” (Universite Claude Bernard Lyon 1, priority 2020, published 2023).
